According to patent publication US20260159497A1, “SOLID FORMS OF A COMPLEMENT FACTOR B INHIBITOR” (Novartis Pharma AG, priority 2022, published 2026):
Like-named read-outs stand apart in the source and are kept apart here.

Experiments:
[1] = Pharmacokinetic study after oral dosing, dog; conditions: in vivo, solution in 20% kleptose in water, Dog beagle male, Fasted, 5 mL/kg; for AUC(0-t): read-out: AUC0-24 h; for concentration at 24 h: read-out: C24 h
Method: (§1) The pharmacokinetic profile of (S)-4-(2,2-difluoro-7-((5-methoxy-7-methyl-1H-indol-4-yl)methyl)-7-azaspiro[3.5]nonan-6-yl)benzoic acid was assessed in rats, dogs or non-human primates (NHPs) as the amorphous compound as a solution in 20% kleptose in water and as a suspension of Form A in 0.5% methocel+0.1% tween 80 in water.
(§2) Amorphous (S)-4-(2,2-difluoro-7-((5-methoxy-7-methyl-1H-indol-4-yl)methyl)-7-azaspiro[3.5]nonan-6-yl)benzoic acid was weighed into a glass vial with a magnetic stir bar to give formulations at dose concentrations of 0.1-1000 mg/kg. Approx. ⅓ the final volume of 20% kleptose (hydroxypropyl β-cyclodextrin, Aldrich, CAS #128446-35-5) in water was added to the vial (to afford either a 5 mL/kg or 10 mL/kg dose volume, depending on the species). The mixture was basified to a pH of 8.5 to 10 using dropwise addition of 2-5 M aqueous NaOH solution, with pH monitoring. The suspension was stirred, vortexed, and sonicated for 15-20 minutes to afford a homogenous mixture. The second ⅓ of the final volume of 20% kleptose was added to the vial and further stirred, vortexed, and sonicated for 15-20 minutes to afford a homogenous mixture. The pH was monitored and further pH adjustment to pH 8.5 to 10, if necessary, can be applied. The final ⅓ the final volume of 20% kleptose was added to the vial and further stirred, vortexed, and sonicated for 15-20 minutes to afford a homogenous solution. The pH of the solution was adjusted to a pH of 7.5 to 8.0 with dropwise addition of 1.0 M aqueous HCl solution with gentle stirring. The formulation should remain in solution.

[2] = Pharmacokinetic study after oral dosing, non-human primate; conditions: cynomolgus monkey, in vivo, solution in 20% kleptose in water, Cyno male, 30 mg/kg, Fed, 5 mL/kg
Method: as §1, §2

[3] = Pharmacokinetic study after oral dosing, rat; type: in vivo, SD Rat; conditions: male, SD (Sprague-Dawley), rat, in vivo, po, solution in 20% kleptose in water, SD Rat male, Fed, 10 mL/kg; for AUC(0-t) / concentration at 24 h: oral; for AUC(0-t): read-out: AUC0-24 h; for concentration at 24 h: read-out: C24 h
Method: as §1, §2
Form A crystalline (S)-4-(2,2-difluoro-7-((5-methoxy-7-methyl-1H-indol-4-yl)methyl)-7-azaspiro[3.5]nonan-6-yl)benzoic acid was weighed into a glass vial with a magnetic stir bar to give formulations at dose concentrations of 0.1-1000 mg/kg. The crystalline material should preferably have a particle size with a D50 below 50 μm, and ideally with a D50 below 5 μm. The desired volume of 0.5% methocel (viscosity 400 cP, Aldrich, CAS #9004-67-5)/0.1% tween-80 (Aldrich, CAS #9005-65-6) was added (to afford a 5 mL/kg dose volume). The contents of the vial were stirred at 400-500 rpm on a stir-plate. Gentle vortex or bath sonication can be applied to break down any large clumps. The vial should be mixed well to ensure homogeneity right before animal dosing.

[4] = Dynamic vapor sorption (DVS) mass change; type: physicochemical; conditions: 95% RH at 25° C.
Source text: [table] The mass change by DVS isotherm (2 cycles 40-0-95-0-40% RH) are in the tables below. The mass change is based on the dry weight of each.

[5] = Solubility in Simulated Fluids at 37° C.; type: physicochemical; conditions: for solubility at 24 h / solubility at 30 min: 37 °C, thermodynamic from solid; for solubility at 24 h: read-out: Solubility (mg/mL) 24 h; for solubility at 30 min: read-out: Solubility (mg/mL) 30 min
Source text: Solubility data of Form A (S)-4-(2,2-difluoro-7-((5-methoxy-7-methyl-1H-indol-4-yl)methyl)-7-azaspiro[3.5]nonan-6-yl)benzoic acid, Form B (S)-4-(2,2-difluoro-7-((5-methoxy-7-methyl-1H-indol-4-yl)methyl)-7-azaspiro[3.5]nonan-6-yl)benzoic acid p-toluene sulfonic acid salt, Form C (S)-4-(2,2-difluoro-7-((5-methoxy-7-methyl-1H-indol-4-yl)methyl)-7-azaspiro[3.5]nonan-6-yl)benzoic acid p-toluene sulfonic acid salt, and Form D (S)-4-(2,2-difluoro-7-((5-methoxy-7-methyl-1H-indol-4-yl)methyl)-7-azaspiro[3.5]nonan-6-yl)benzoic acid hydrochloride salt in Simulated Fluids at 37° C.

[6] = after 12 weeks of treatment; cited from earlier work
[7] = fassgf or other biorelevant, FaSSGF, 24 h

## COc1cc(C)c2[nH]ccc2c1CN1CCC2(C[C@H]1c1ccc(C(=O)O)cc1)CC(F)(F)C2 [(S)-4-(2,2-difluoro-7-((5-methoxy-7-methyl-1H-indol-4-yl)methyl)-7-azaspiro[3.5]nonan-6-yl)benzoic acid]
[1]; 2 mg/kg
  Cmax: 3.64 µM
  AUC(0-t): 54.3 µM·h
  concentration at 24 h: 1.73 µM
[1]; 100 mg/kg
  Cmax: 139 µM
  AUC(0-t): 1320 µM·h
  concentration at 24 h: 18.8 µM
[2]
  Cmax: 8.6 µM
[2]; read-out: AUC0-24 h
  AUC(0-t): 96.1 µM·h
[2]; read-out: C24 h
  concentration at 24 h: 1.75 µM
[3]; 2 mg/kg, 2 mg/kg
  AUC(0-t): 20.5 µM·h
  concentration at 24 h: 0.21 µM
[3]; 2 mg/kg
  Cmax: 2.42 µM
[3]; 300 mg/kg, 300 mg/kg
  AUC(0-t): 1110 µM·h
  concentration at 24 h: 18 µM
[3]; 300 mg/kg
  Cmax: 94 µM

## COc1cc(C)c2[nH]ccc2c1CN1CCC2(C[C@H]1c1ccc(C(=O)O)cc1)CC(F)(F)C2.Cc1ccc(S(=O)(=O)O)cc1 [Form C, (S)-4-(2,2-difluoro-7-((5-methoxy-7-methyl-1H-indol-4-yl)methyl)-7-azaspiro[3.5]nonan-6-yl)benzoic acid p-toluene sulfonic acid salt]
[4]
  moisture absorbed by DVS (absorbs up to): up to 0.4%
[5]; [7]
  solubility at 24 h: 0.85 mg/mL
[5]; FaSSGF
  pH at 24 h: 1.56
[5]; FaSSGF, 30 min
  Solubility (mg/mL) 30 min: 0.87 mg/mL
[5]; FaSSIF
  pH at 24 h: 6.25
[5]; FaSSIF, 30 min
  Solubility (mg/mL) 30 min: 1.68 mg/mL
[5]; FaSSIF, 24 h
  Solubility (mg/mL) 24 h: 0.13 mg/mL
[5]; FeSSIF
  pH at 24 h: 4.97
[5]; FeSSIF, 30 min
  Solubility (mg/mL) 30 min: 1.63 mg/mL
[5]; FeSSIF, 24 h
  Solubility (mg/mL) 24 h: 1.69 mg/mL
[5]; Water, initial pH 7.00
  pH at 24 h: 3.37
[5]; Water, initial pH 7.00, 30 min
  Solubility (mg/mL) 30 min: 0.88 mg/mL
[5]; Water, initial pH 7.00, 24 h
  Solubility (mg/mL) 24 h: 1.12 mg/mL

## COc1cc(C)c2[nH]ccc2c1CN1CCC2(C[C@H]1c1ccc(C(=O)O)cc1)CC(F)(F)C2.Cl [Form D, (S)-4-(2,2-difluoro-7-((5-methoxy-7-methyl-1H-indol-4-yl)methyl)-7-azaspiro[3.5]nonan-6-yl)benzoic acid hydrochloride salt]
[5]; fassgf or other biorelevant, FaSSGF, 30 min
  solubility at 30 min: 2.25 mg/mL
[5]; [7]
  solubility at 24 h: > 2 mg/mL
[5]; fassif, FaSSIF, 30 min
  solubility at 30 min: 2.19 mg/mL
[5]; fassif, FaSSIF, 24 h
  solubility at 24 h: > 2 mg/mL
[5]; fessif, FeSSIF, 30 min
  solubility at 30 min: 2.19 mg/mL
[5]; fessif, FeSSIF, 24 h
  solubility at 24 h: 2.33 mg/mL
[5]; pH 7, water, Water, initial pH 7.00, 30 min
  solubility at 30 min: 2.08 mg/mL
[5]; pH 7, water, Water, initial pH 7.00, 24 h
  solubility at 24 h: > 2 mg/mL
[5]; FaSSGF
  pH at 24 h: 1.57
[5]; FaSSIF
  pH at 24 h: 6.17
[5]; FeSSIF
  pH at 24 h: 4.95
[5]; Water, initial pH 7.00
  pH at 24 h: 3.13

## CCO[C@H]1CCN(Cc2c(OC)cc(C)c3[nH]ccc23)[C@H](c2ccc(C(=O)O)cc2)C1 [iptacopan]
[6]
  efficacy in Phase II clinical trial in C3G: reduced proteinuria
